Key:
[1] = system: human induced pluripotent stem (iPS) cells; type: cell-based; settings: human
Protocol: The dibenzyl butyl lactone derivative enantiomer A and B were compared to enterolactone and tested to determine toxicity using a human pluripotent stem (hPS) cell-based assay that predicts the developmental toxicity potential. […] The current study was conducted using human induced pluripotent stem (iPS) cells.
The impact of test article exposure on ornithine and cystine metabolism in human induced pluripotent stem (iPS) cells was measured for three test articles (dibenzyl butyl lactone derivative enantiomer A, dibenzyl butyl lactone derivative enantiomer B, and enterolactone) and prediction of the potential for developmental toxicity was made through application of the hPS cell-based assay. Exposure spanned a range of eight treatment levels per test article ranging from 0.03-100 μM.
The observed decrease in the o/c ratio following exposure to each test article is indicative of the potential for developmental toxicity and/or embryo lethality in vivo at or above the dTP concentration. FIGS. 15A-C show the o/c ratio of dibenzyl butyl lactone derivative enantiomer A (FIG. 15A), dibenzyl butyl lactone derivative enantiomer B (FIG. 15B), and (+/−) enterolactone (FIG. 15C). The graphs in FIGS. 15A-C show the cell viability and o/c/ ratio over concentrations of 0.03-100 μM with the straight horizontal line illustrating the developmental toxicity threshold of 0.85.

[2] = system: MCF7 (human breast cancer cell line); experiment: MTT toxicity assay in MCF7 breast cancer cells; type: cell-based
Protocol: Toxicity of the dibenzyl butyl lactone derivative (3-[(3,4-dimethoxyphenyl)cyclopentyl], 4-[(3-hydroxyphenol)methyl]oxolan-2-one) in breast cancer cells was evaluated using MTT assay. The MTT toxicity test is a colorimetric assay to measure cells' metabolic activity by serving as a substrate of cellular enzymes that reduce the tetrazolium orange dye, MTT (3-(4,5-Dimethylthiazol-2-yl)-2,5-diphenyltetrazolium bromide) to its insoluble, formazan, giving a purple color. The rate of conversion is directly proportional to cells' mitochondrial metabolic activity via NAD (P) H-dependent cellular oxidoreductase enzymes and serves as a surrogate marker of cell viability.
Cultures of MCF7 (human breast cancer cell line) working stock (5 passages) were established under standard culture conditions in Eagle's minimum essential medium (EMEM). EMEM was supplemented with 10% fetal bovine serum (FBS), 2 mM Glutamine and Pen/Strep, and Penicillin 0.01 mg/ml.
Cells previously expanded were seeded in 96 well plates at 1.9×10^5 and 9.6×10^4 cells/plate for 24- and 72-hours treatment respectively. This concentration is known to show the best window for the MTT assay, with better sensitivity and low variability.
5 mg of powdered enterolactone, dibenzyl butyl lactone derivative enantiomer A, and dibenzyl butyl lactone derivative enantiomer B were dissolved in 500 μl of DMSO at room temperature. Eight-point curves, ⅓ dilutions (highest concentration 125 μM), were prepared.
Twenty-four hours following the seeding process, the cells were washed once with phosphate buffered saline (PBS) and treated with the respective compounds in cell culture media. Each condition was tested in triplicates. For positive and negative controls, 8 mM methyl methane sulfonate (MMS) and DMSO 100% were used respectively.
Following compound addition, the plates were incubated for 24 and 72 hours. After the treatment period, cells were washed twice with PBS and media was replaced with MTT reagent at 0.5 mg/ml in Dulbecco's modified Eagle medium (DMEM) without phenol red. The plates were gently shaken and incubated for 4 hours. After the incubation the medium was removed and replaced by DMSO. The plates were gently shaken to solubilize the formazan crystals. Absorbance was measured using an Envision multiplate reader at a wavelength of 570 nm.
Eight serial dilutions were prepared (125.00, 41.67, 13.89, 4.63, 1.54, 0.51, 0.17 and 0.06 µM to evaluate the compounds (in triplicate). MTT results showing cell death values above 20% are considered as having a significant toxic effect.
MTT assay results are shown in Tables 2-7 and expressed as the percentage of cell death after treatment.

O=C1OCC(Cc2ccc3c(c2)OCO3)/C1=C\c1cccc(O)c1 (single isomer, unassigned) [Enantiomer B, 3-[(3,4-dimethoxyphenyl)cyclopentyl], 4-[(3-hydroxyphenol)methyl]oxolan-2-one]
TP Concentration [1]: 49.8 µM
TP concentration, fold lower than (+/−) enterolactone TP [1]: 4-6 fold
dTP Concentration [1]: 15.1 µM
dTP and TP concentrations compared with anti-cancer drugs tested in this assay [1]: higher than >90% of the anti-cancer drugs
similarity of dTP concentrations between all three compounds [1]: ≤ 2 fold
Cell death #1 (%) ([2]; MCF7, 24 hours, 0.06 μM): −90.03%
Cell death #2 (%) ([2]; MCF7, 24 hours, 0.06 μM): −85.75%
Cell death #3 (%) ([2]; MCF7, 24 hours, 0.06 μM): −79.34%
Cell death (%) MEAN ([2]; MCF7, 24 hours, 0.06 μM): −85.04%
Cell death #1 (%) ([2]; MCF7, 24 hours, 0.17 μM): −146.30%
Cell death #2 (%) ([2]; MCF7, 24 hours, 0.17 μM): −115.67%
Cell death #3 (%) ([2]; MCF7, 24 hours, 0.17 μM): −91.45%
Cell death (%) MEAN ([2]; MCF7, 24 hours, 0.17 μM): −117.81%
Cell death #1 (%) ([2]; MCF7, 24 hours, 0.51 μM): −124.22%
Cell death #2 (%) ([2]; MCF7, 24 hours, 0.51 μM): −120.66%
Cell death #3 (%) ([2]; MCF7, 24 hours, 0.51 μM): −95.01%
Cell death (%) MEAN ([2]; MCF7, 24 hours, 0.51 μM): −113.30%
Cell death #1 (%) ([2]; MCF7, 24 hours, 1.54 μM): −115.67%
Cell death #2 (%) ([2]; MCF7, 24 hours, 1.54 μM): −156.99%
Cell death #3 (%) ([2]; MCF7, 24 hours, 1.54 μM): −114.96%
Cell death (%) MEAN ([2]; MCF7, 24 hours, 1.54 μM): −129.21%
Cell death #1 (%) ([2]; MCF7, 24 hours, 4.63 μM): −134.19%
Cell death #2 (%) ([2]; MCF7, 24 hours, 4.63 μM): −163.40%
Cell death #3 (%) ([2]; MCF7, 24 hours, 4.63 μM): −138.47%
Cell death (%) MEAN ([2]; MCF7, 24 hours, 4.63 μM): −145.35%
Cell death #1 (%) ([2]; MCF7, 24 hours, 13.89 μM): −132.06%
Cell death #2 (%) ([2]; MCF7, 24 hours, 13.89 μM): −174.09%
Cell death #3 (%) ([2]; MCF7, 24 hours, 13.89 μM): −134.91%
Cell death (%) MEAN ([2]; MCF7, 24 hours, 13.89 μM): −147.02%
Cell death #1 (%) ([2]; MCF7, 24 hours, 41.67 μM): −211.84%
Cell death #2 (%) ([2]; MCF7, 24 hours, 41.67 μM): −192.61%
Cell death #3 (%) ([2]; MCF7, 24 hours, 41.67 μM): −204.01%
Cell death (%) MEAN ([2]; MCF7, 24 hours, 41.67 μM): −202.82%
Cell death #1 (%) ([2]; MCF7, 24 hours, 125.00 μM): 63.85%
Cell death #2 (%) ([2]; MCF7, 24 hours, 125.00 μM): 47.46%
Cell death #3 (%) ([2]; MCF7, 24 hours, 125.00 μM): 63.13%
Cell death (%) MEAN ([2]; MCF7, 24 hours, 125.00 μM): 58.15%
Cell death #1 (%) ([2]; MCF7, 72 hours, 0.06 μM): −31.84%
Cell death #2 (%) ([2]; MCF7, 72 hours, 0.06 μM): −27.21%
Cell death #3 (%) ([2]; MCF7, 72 hours, 0.06 μM): −56.05%
Cell death (%) MEAN ([2]; MCF7, 72 hours, 0.06 μM): −38.37%
Cell death #1 (%) ([2]; MCF7, 72 hours, 0.17 μM): −74.60%
Cell death #2 (%) ([2]; MCF7, 72 hours, 0.17 μM): −57.08%
Cell death #3 (%) ([2]; MCF7, 72 hours, 0.17 μM): −52.45%
Cell death (%) MEAN ([2]; MCF7, 72 hours, 0.17 μM): −61.38%
Cell death #1 (%) ([2]; MCF7, 72 hours, 0.51 μM): −28.49%
Cell death #2 (%) ([2]; MCF7, 72 hours, 0.51 μM): −52.45%
Cell death #3 (%) ([2]; MCF7, 72 hours, 0.51 μM): −56.31%
Cell death (%) MEAN ([2]; MCF7, 72 hours, 0.51 μM): −45.75%
Cell death #1 (%) ([2]; MCF7, 72 hours, 1.54 μM): −22.57%
Cell death #2 (%) ([2]; MCF7, 72 hours, 1.54 μM): −37.77%
Cell death #3 (%) ([2]; MCF7, 72 hours, 1.54 μM): −19.48%
Cell death (%) MEAN ([2]; MCF7, 72 hours, 1.54 μM): −26.60%
Cell death #1 (%) ([2]; MCF7, 72 hours, 4.63 μM): −32.87%
Cell death #2 (%) ([2]; MCF7, 72 hours, 4.63 μM): −34.42%
Cell death #3 (%) ([2]; MCF7, 72 hours, 4.63 μM): −30.04%
Cell death (%) MEAN ([2]; MCF7, 72 hours, 4.63 μM): −32.44%
Cell death #1 (%) ([2]; MCF7, 72 hours, 13.89 μM): −23.34%
Cell death #2 (%) ([2]; MCF7, 72 hours, 13.89 μM): −30.55%
Cell death #3 (%) ([2]; MCF7, 72 hours, 13.89 μM): −9.69%
Cell death (%) MEAN ([2]; MCF7, 72 hours, 13.89 μM): −21.20%
Cell death #1 (%) ([2]; MCF7, 72 hours, 41.67 μM): −18.96%
Cell death #2 (%) ([2]; MCF7, 72 hours, 41.67 μM): −6.08%
Cell death #3 (%) ([2]; MCF7, 72 hours, 41.67 μM): 17.10%
Cell death (%) MEAN ([2]; MCF7, 72 hours, 41.67 μM): −2.65%
Cell death #1 (%) ([2]; MCF7, 72 hours, 125.00 μM): 99.00%
Cell death #2 (%) ([2]; MCF7, 72 hours, 125.00 μM): 99.52%
Cell death #3 (%) ([2]; MCF7, 72 hours, 125.00 μM): 99.00%
Cell death (%) MEAN ([2]; MCF7, 72 hours, 125.00 μM): 99.17%
breast cancer cell death as compared to enterolactone ([2]; MCF7, at higher concentrations, 24 hours and 72 hours post-treatment): increased breast cancer cell death as compared to enterolactone
